Results as given in patent EP1984353B1, “AURORA KINASE MODULATORS AND METHOD OF USE” (Amgen, Inc, priority 2006, dated 2007).
Read-outs that look alike come from different tables or passages of the source.

Assays:
[1] = test system: phosphorylation of Histone H3; experiment: HeLa cell 1-hour phospho-histone assay; format: cell-based; details: HeLa cells
Procedure: HeLa cell 1-hour phospho-histone assay
The purpose of this assay is to test the inhibitory effect of Aurora compounds with respect to phosphorylation of Histone H3 in the cellular context. HeLa cells (9x10^4/well) are plated in black 96-well flat-bottom tissue culture plates and incubated for 40 hours prior to compound addition. Compounds are serially diluted in DMSO, followed by dilution into MEM containing […] HEPES; 10ul/well of diluted compounds are added to cells (0.5% DMSO final). Cells are incubated for 1 hour at 37 °C in 5% CO2. Cells are then fixed with 3.7% formaldehyde for 10 minutes, washed with wash buffer (1% goat serum and 0.1% Tween 20 in PBS), then permeabilized with 0.5% Triton X in PBS for 15 minutes. After washing with wash buffer, cells are incubated with primary antibody (Upstate #06-507 anti-phospho-histone (Ser 10) antibody (pHH3) for 1 hour at 10ug/ml. After 2 washes with wash buffer, cells are incubated with secondary antibody (Molecular Probes #A11034 goat anti-rabbit Alexa-488 for 1 hour at 1ug/ml + Hoechst 33342 nuclear dye at 1ug/ml (Molecular Probes). Cells are washed 2 times with wash buffer, and buffer replaced with PBS. Plates are scanned on the Cellomics Array Scan (6 fields, ~2000 cells/well) and % of cells that are pHH3 positive were calculated using the Cellomics algorithm.

AuroraB = target: T1, AuroraB (Homo sapiens, UniProt Q96GD4); experiment: AuroraB Homogeneous Time Resolved Fluorescent (HTRF) kinase assay; format: biochemical
T1 construct: 20 µL of AuroraB FL His; His
Outline: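 HTRF read-out: after EDTA stop and ~60 min with europium anti-phospho-H3 antibody and streptavidin-APC, 655/615 nm ratio reports phosphorylation. Reaction: 400 pM AuroraB FL His, 23 µM ATP (at Km(app)), 0.1 µM biotin-Histone H3 peptide, 50 mM HEPES pH 7.5, MgCl/MnCl, ~90 min.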

AuroraA-TPX2 = target: T2, AuroraA-TPX2 (Homo sapiens, UniProt O14965); experiment: AuroraA-TPX2 Homogeneous Time Resolved Fluorescent (HTRF) kinase assay; format: biochemical; details: average, read-out: AurA/TP X2_ IC50_IP (Avg)
T2 construct: 20 µL of AuroraA-TPX2 KD GST; GST
T2 sequence (O14965 133-383 limits assumed): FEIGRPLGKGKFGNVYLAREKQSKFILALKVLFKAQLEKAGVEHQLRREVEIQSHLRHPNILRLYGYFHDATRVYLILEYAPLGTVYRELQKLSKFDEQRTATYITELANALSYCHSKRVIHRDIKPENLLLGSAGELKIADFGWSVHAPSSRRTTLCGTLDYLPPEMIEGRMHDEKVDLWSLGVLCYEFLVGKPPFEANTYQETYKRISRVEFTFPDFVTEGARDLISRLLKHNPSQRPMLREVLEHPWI
T2 sequence (Q9ULW0 1-43 partner limits assumed): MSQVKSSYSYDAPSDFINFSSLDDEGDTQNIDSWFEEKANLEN
Outline: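 HTRF read-out: europium anti-phosphoPLK antibody (0.02 nM) plus streptavidin-APC detect phosphorylated biotin-PLK after EDTA stop and overnight equilibration. Kinase step runs about 120 min with Aurora-A/TPX2, ATP and roughly 1 µM PLK peptide at pH 7.5 HEPES buffer with Mg2+ and DTT.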

[2] = Homo sapiens, HeLa, 1 h, 1 hour incubation, % of cells pHH3 positive, read-out: inhibitory activity (EC50) in the phospho-histone H3 assay
[3] = Homo sapiens, HeLa, 1 h, 1 hour, average, given as class symbols, read-out: pHH3 EC50_IP (Avg)
[4] = Homo sapiens, HeLa, 1 h, 1 hour, average, given as numbers, unit inferred, read-out: pHH3 EC50_IP (Avg)
[5] = average, given as class symbols, read-out: AurB_ _IC50_IP (Avg)

T1 sequence (Q96GD4 whole entry): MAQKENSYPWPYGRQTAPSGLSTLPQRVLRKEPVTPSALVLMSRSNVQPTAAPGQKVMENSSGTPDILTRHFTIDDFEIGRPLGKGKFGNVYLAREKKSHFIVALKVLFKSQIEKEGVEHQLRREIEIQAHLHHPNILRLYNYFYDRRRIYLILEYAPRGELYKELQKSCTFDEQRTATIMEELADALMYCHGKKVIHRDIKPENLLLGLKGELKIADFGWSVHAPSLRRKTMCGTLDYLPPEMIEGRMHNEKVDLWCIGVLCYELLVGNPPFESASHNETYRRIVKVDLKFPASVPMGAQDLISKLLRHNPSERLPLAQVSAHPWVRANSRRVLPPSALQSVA

**Q.** How did the EC50 [1, 2] turn out when `Nc1nccc(-c2cccnc2Oc2ccc(Nc3nnc(-c4ccsc4)c4ccccc34)cc2)n1` [Example 90, N-(4-((3-(2-amino-4-pyrimidinyl)-2-pyridinyl)oxy)phenyl)-4-(3-thienyl)-1-phthalazinamine] was run?
**A.** Its EC50 is less than 1000 nM.

**Q.** How did the EC50 [1, 2] turn out when `CNc1nccc(-c2cccnc2Oc2ccc(Nc3nnc(-c4ccsc4)c4ccccc34)cn2)n1` [Example 92, N-(6-((3-(2-(methylamino)-4-pyrimidinyl)-2-pyridinyl)oxy)-3-pyridinyl)-4-(3-thienyl)-1-phthalazinamine] was run?
**A.** The EC50 was less than 1000 nM.

**Q.** Which EC50 [1, 2] does the source give for `CNc1nccc(-c2cccnc2Oc2ccc(Nc3nnc(-c4ccccc4)c4c3CCCC4)cn2)n1` [Example 105, N-(6-((3-(2-(methylamino)-4-pyrimidinyl)-2-pyridinyl)oxy)-3-pyridinyl)-4-phenyl-5,6,7,8-tetrahydro-1-phthalazinamine] here?
**A.** Its EC50 is less than 1000 nM.

**Q.** How did the EC50 ([1]; 1 hour incubation, % of cells pHH3 positive, read-out: inhibitory activity (EC50) in the phospho-histone H3 assay) turn out when `CNc1nccc(-c2cccnc2Oc2ccc(Nc3nnc(-c4ccccc4)c4c3C3CCC4CC3)cc2)n1` [Example 107, N-(4-((3-(2-(methylamino)-4-pyrimidinyl)-2-pyridinyl)oxy)phenyl)-6-phenyl-4,5-diazatricyclo [6.2.2.0-2,7-]dodeca-2,4,6-trien-3-amine] was run?
**A.** The EC50 was less than 1000 nM.

**Q.** `CNc1nccc(-c2cccnc2Oc2ccc(Nc3nnc(-c4ccccc4)c4c3CCC4)cn2)n1` [Example 108, N-(6-((3-(2-(methylamino)-4-pyrimidinyl)-2-pyridinyl)oxy)-3-pyridinyl)-4-phenyl-6,7-dihydro-5H-cyclopenta[d]pyridazin-1-amine] was tested. Which EC50 [1, 2] did it give?
**A.** Its EC50 is less than 1000 nM.

**Q.** For `Cc1cc(-c2ccccc2)nnc1Nc1ccc(Oc2ncccc2-c2ccnc(N)n2)cc1` [Example 119, N-(4-((3-(2-amino-4-pyrimidinyl)-2-pyridinyl)oxy)phenyl)-4-methyl-6-phenyl-3-pyridazinamine], which EC50 [1, 2] is on record?
**A.** The EC50 was less than 1000 nM.

**Q.** How did the EC50 [1, 2] turn out when `CNc1cc(-c2cccnc2Oc2ccc(Nc3nnc(-c4ccccc4)c4c3CCC4)cn2)ccn1` [Example 120, N-methyl-2-((5-((4-phenyl-6,7-dihydro-5H-cyclopenta[d]pyridazin-1-yl)amino)-2-pyridinyl)oxy)-3,4'-bipyridin-2'-amine] was run?
**A.** The EC50 was less than 1000 nM.

**Q.** `Nc1[nH]ncc1-c1cccnc1Oc1ccc(Nc2nnc(-c3ccccc3)c3ccccc23)cc1` [Example 238, N-(4-((3-(5-amino-1H-pyrazol-4-yl)-2-pyridinyl)oxy)phenyl)-4-phenyl-1-phthalazinamine] was tested. Which EC50 [1, 2] did it give?
**A.** The EC50 was less than 1000 nM.

**Q.** And the IC50 (AuroraB; read-out: inhibitory activity (IC50) in the Aurora kinase B HTRF assay)?
**A.** Its IC50 is less than 500 nM.

**Q.** For `Nc1nccc(-c2cccnc2Oc2ccc(Nc3nnc(-c4ccccc4)c4ccccc34)cn2)n1` [compound 415, N-(6-((3-(2-amino-4-pyrimidinyl)-2-pyridinyl)oxy)-3-pyridinyl)-4-phenyl-1-phthalazinamine], which EC50 [1, 3] is on record?
**A.** Its EC50 is no more than 100 nM.

**Q.** For `Cc1csc(-c2nnc(Nc3ccc(Oc4ncccc4-c4ccnc(N)c4)cc3)c3ccccc23)c1` [compound 416, 2-((4-((4-(4-methyl-2-thienyl)-1-phthalazinyl)amino)phenyl)oxy)-3,4'-bipyridin-2'-amine], which EC50 [1, 4] is on record?
**A.** The EC50 was 134 nM.

**Q.** For `Cc1cc(-c2ccccc2)nnc1Nc1ccc(Oc2ncccc2-c2ccnc(N)c2)cc1` [compound 418, 2-((4-((4-methyl-6-phenyl-3-pyridazinyl)amino)phenyl)oxy)-3,4'-bipyridin-2'-amine], which EC50 [1, 3] is on record?
**A.** Its EC50 is 100 to 500 nM.

**Q.** Which EC50 [1, 3] does the source give for `Cc1csc(-c2cc(C)c(Nc3ccc(Oc4ncccc4-c4ccnc(N)c4)cc3)nn2)c1` [compound 419, 2-((4-((4-methyl-6-(4-methyl-2-thienyl)-3-pyridazinyl)amino)phenyl)oxy)-3,4'-bipyridin-2'-amine] here?
**A.** Its EC50 is 100 to 500 nM.

**Q.** For `CCc1cc(-c2ccccc2)nnc1Nc1ccc(Oc2ncccc2-c2ccnc(N)c2)cc1` [compound 420, 2-((4-((4-ethyl-6-phenyl-3-pyridazinyl)amino)phenyl)oxy)-3,4'-bipyridin-2'-amine], which EC50 [1, 4] is on record?
**A.** Its EC50 is 314 nM.

**Q.** Which EC50 [1, 3] does the source give for `O=C(O)CCCNc1nccc(-c2cccnc2Oc2ccc(Nc3nnc(-c4ccccc4)c4ccccc34)cc2)n1` [compound 427, 4-((4-(2-((4-((4-phenyl-1-phthalazinyl)amino)phenyl)oxy)-3-pyridinyl)-2-pyrimidinyl)amino)butanoic acid] here?
**A.** The EC50 was 500 to 2500 nM.

**Q.** How did the EC50 [1, 3] turn out when `Cc1csc(-c2cc(C)c(Nc3ccc(Oc4ncccc4-c4ccncc4)cc3)nn2)c1` [compound 428, N-(4-(3,4'-bipyridin-2-yloxy)phenyl)-4-methyl-6-(4-methyl-2-thienyl)-3-pyridazinamine] was run?
**A.** Its EC50 is 500 to 2500 nM.

**Q.** Which EC50 [1, 3] does the source give for `Cc1cc(-c2ccccc2)nnc1Nc1ccc(Oc2ncccc2-c2ccnc(NCCCO)n2)cc1` [compound 429, 3-((4-(2-((4-((4-methyl-6-phenyl-3-pyridazinyl)amino)phenyl)oxy)-3-pyridinyl)-2-pyrimidinyl)amino)-1-propanol] here?
**A.** The EC50 was 100 to 500 nM.

**Q.** How did the EC50 [1, 3] turn out when `Cc1cc(-c2ccccc2)nnc1Nc1ccc(Oc2ncccc2-c2ccnc(NCCCC(=O)O)n2)cc1` [compound 430, 4-((4-(2-((4-((4-methyl-6-phenyl-3-pyridazinyl)amino)phenyl)oxy)-3-pyridinyl)-2-pyrimidinyl)amino)butanoic acid] was run?
**A.** Its EC50 is 500 to 2500 nM.

**Q.** `Nc1cc(-c2cccnc2Oc2ccc(Nc3nnc(-c4ccccc4)c4ccccc34)cn2)ccn1` [compound 431, 2-((5-((4-phenyl-l-phthalazinyl)amino)-2-pyridinyl)oxy)-3,4'-bipyridin-2'-amine] was tested. Which EC50 [1, 3] did it give?
**A.** Its EC50 is no more than 100 nM.

**Q.** Which EC50 [1, 3] does the source give for `O=c1cc(-c2cccnc2Oc2ccc(Nc3nnc(-c4ccccc4)c4ccccc34)cc2)cc[nH]1` [compound 432, 2-((4-((4-phenyl-1-phthalazinyl)amino)phenyl)oxy)-3,4'-bipyridin-2'(1'H)-one] here?
**A.** The EC50 was 500 to 2500 nM.

**Q.** With `Cc1csc(-c2cc(C)c(Nc3ccc(Oc4ncccc4-c4ccnc(N)c4)cc3)nn2)n1` [compound 434, 2-((4-((4-methyl-6-(4-methyl-1,3-thiazol-2-yl)-3-pyridazinyl)amino)phenyl)oxy)-3,4'-bipyridin-2'-amine] as the molecule, how does the EC50 [1, 4] read?
**A.** The EC50 was 1000 nM.

**Q.** `CCc1cc(-c2ccccc2)nnc1Nc1ccc(Oc2ncccc2-c2ccnc(NCCCN3CCNCC3)n2)cc1` [compound 457, 4-ethyl-6-phenyl-N-(4-((3-(2-((3-(1-piperazinyl)propyl)amino)-4-pyrimidinyl)-2-pyridinyl)oxy)phenyl)-3-pyridazinamine] was tested. Which IC50 (AuroraB; [5]) did it give?
**A.** Its IC50 is no more than 100 nM.

**Q.** And the IC50 (AuroraA-TPX2; given as class symbols)?
**A.** Its IC50 is no more than 100 nM.

**Q.** How did the IC50 (AuroraB; [5]) turn out when `CCc1cc(-c2ccccc2)nnc1Nc1ccc(Oc2ncccc2-c2ccnc(NCCCN3CCCCC3)n2)cc1` [compound 458, 4-ethyl-6-phenyl-N-(4-((3-(2-((3-(1-piperidinyl)propyl)amino)-4-pyrimidinyl)-2-pyridinyl)oxy)phenyl)-3-pyridazinamine] was run?
**A.** The IC50 was no more than 100 nM.

**Q.** What about the IC50 (AuroraA-TPX2; given as class symbols) of the same molecule?
**A.** Its IC50 is no more than 100 nM.

**Q.** For `CCc1cc(-c2ccccc2)nnc1Nc1ccc(Oc2ncccc2-c2ccnc(NCCCN3CCCC3)n2)cc1` [compound 459, 4-ethyl-6-phenyl-N-(4-((3-(2-((3-(1-pyrrolidinyl)propyl)amino)-4-pyrimidinyl)-2-pyridinyl)oxy)phenyl)-3-pyridazinamine], which IC50 (AuroraB; [5]) is on record?
**A.** Its IC50 is no more than 100 nM.

**Q.** What about the IC50 (AuroraA-TPX2; given as class symbols) of the same molecule?
**A.** Its IC50 is 100 to 500 nM.

**Q.** Which results are given for `COc1cccc(-c2nnc(Nc3ccc(Oc4ncccc4-c4ccnc(NCCCN5CCNCC5)n4)cc3)c3ccccc23)n1` [compound 460, 4-(6-(methyloxy)-2-pyridinyl)-N-(4-((3-(2-((3-(1-piperazinyl)propyl)amino)-4-pyrimidinyl)-2-pyridinyl)oxy)phenyl)-1-phthalazinamine]?
**A.** IC50 (AuroraB; [5]): ≤ 100 nM; IC50 (AuroraA-TPX2; given as class symbols): ≤ 100 nM

**Q.** “N-(4-((3-(2-amino-4-pyrimidinyl)-2-pyridinyl)oxy)phenyl)-4-(6-methyl-2-pyridinyl)-1-phthalazinamine [compound 271]” was tested. Which IC50 (AuroraB; average, given as numbers, unit inferred, read-out: AurB_ _IC50_IP (Avg)) did it give?
**A.** Its IC50 is 1 nM.

**Q.** What about the IC50 (AuroraA-TPX2; given as numbers, unit inferred) of the same molecule?
**A.** The IC50 was 24.3 nM.

**Q.** What does the source list for “N-(4-((3-(2-amino-4-pyrimidinyl)-2-pyridinyl)oxy)phenyl)-4-ethyl-6-phenyl-3-pyridazinamine [compound 435]”?
**A.** IC50 (AuroraB; [5]): ≤ 100 nM; IC50 (AuroraA-TPX2; given as class symbols): ≤ 100 nM
